According to patent US8927572B2, “Crystal form I of salt of a dipeptidyl peptidase-IV inhibitor and preparation method and use thereof” (Xuanzhu Pharma Co., Ltd., priority 2011, dated 2015):
Counter-ions that a name gives are not always drawn.

How the values were obtained:
DPP-IV = DPP-IV (Homo sapiens, UniProt P27487); details: background; described in CN201010291056.9; cited from earlier work
[1] = Investigation on the water solubility; format: physicochemical
From the text: Investigation on the Water Solubility of Crystal Form I of Dihydrochloride Salt of Compound A

[2] = Influence factor stability test (high temperature, high humidity, light irradiation); format: physicochemical
Method: The crystal form I of dihydrochloride salt of Compound A prepared from Example 1.
The Test Conditions for Investigating the Influencing Factors:
Each of the test samples was placed at a high temperature of 60° C. (packed with an plastic bag for packing drugs as the inner layer and an aluminium foil as the outer layer), a high humidity of RH75%±5% (uniformly spread on a dry and clean watch glass), and a light irradiation of 4500 Lx±500 Lx (uniformly spread on a dry and clean watch glass). Sampling was performed on Day 5 and Day 10 respectively, and Relevant Substance and the content of Compound A were measured and compared with those of the sample on Day 0.
(§1) The content was measured by using an External Standard method in accordance with the High Performance Liquid Chromatography in Chinese Pharmacopoeia, Appendix V D, Edition 2010.
(§2) Measurement of Relevant Substance
(§3) The Relevant Substance was measured by using an Area Normalization method in accordance with the High Performance Liquid Chromatography in Chinese Pharmacopoeia, Appendix V D, Edition 2010.

[3] = In vivo pharmacokinetics in SD rats; parameters: species or system SD (Sprague Dwaley) rats
Method: (§4) Test sample: the crystal form I of dihydrochloride salt of Compound A prepared from Example 1.
Experimental Animals: SD (Sprague Dwaley) rats, quantity 12.
The SD rats were divided into two groups, namely Intravenous Injection group and Intragastric Administration group, and there were 6 rats in each group in which one half were female and the other were male. The dose administrated was always 10 mg/kg (in terms of Compound A). The volume administered by the intravenous injection route was 5 mL/kg, and the volume administered by the intragastric administration route was 10 mL/kg. The time points for sequential blood sampling were 0 minutes before administration (0 min), and 5 min, 15 min, 30 min, 1 h, 2 h, 4 h, 6 h, 8 h, 12 h and 24 h after administration. About 150 μL of blood was collected into a sodium heparin anticoagulation tube from the caudal vein or Inner canthus vein after administration. The whole blood was placed in a high-speed refrigerated centrifuge (8000 rpm, 0-4° C.) and centrifuged for 6 min. The supernatant of the blood plasma was separated and stored in a refrigerator for measurement. The centrifugation of all blood samples was completed within 30 min after blood collection. The concentration of Compound A in the blood plasma of SD rats was determined by LC-MS/MS method.
Analysis and processing of Data: The plasma concentration—time curve was plotted, and the pharmacokinetic parameters were calculated by using the non-compartment model in Phrsight Phoenix 6.1.

Long-term stability test = format: physicochemical; details: for Content of Compound A (%) / Content of Relevant Substance (%) / Properties: 25° C.±2° C., RH 60%±10%
Method: The Test Conditions for Investigating the Long-Term Stability:
Each of the test samples was placed at a temperature of 25° C.±2° C. and a humidity of RH 60%±10%. Sampling was performed at the end of Months 3, 6, 9, 12 and 18 respectively, and Relevant Substance and the content of Compound A were measured and compared with those of the sample on Day 0. During the investigation, the sample was packed with a plastic bag for packing drugs as the inner layer and an aluminium foil as the outer layer.
as §1, §2, §3

blood glucose = assay: Oral Glucose Tolerance Test (OGTT) in mice; format: in vivo, Mice C57BL/6; details: for inhibition ratio for the blood glucose AUC: glucose 3 g/kg
Method: as §4
Experimental animals: Mice C57BL/6, quantity 40.
On the day before the test, the food for mice was removed at 5 p.m., and the mice were fasted overnight. On the second day, the fasting blood glucose of each mouse was checked at 9 a.m. and recorded as −30 min blood glucose. The body weight was weighed and recorded. After balancing the blood glucose level and body weight, the mice were randomly divided into four groups, namely Background Control group, Vehicle Control group, Dosing group 1 and Dosing group 2. To the later three groups, a vehicle (0.9% sodium chloride injection solution), 1 mg/kg test sample and 3 mg/kg test sample was administered respectively, and the volume administered was 10 mL/kg. The blood glucose of each mouse was measured and recorded as 0 min blood glucose 30 minutes after the intragastric administration. Afterwards glucose was further administered via intragastric administration at a dose of 3 g/kg to the Vehicle Control group, Dosing group 1 and Dosing group 2, and 0.9% sodium chloride injection solution was administered via intragastric administration to the Background Control group at an intragastric administration volume of 10 mL/kg. Then, the blood glucose levels were measured at 20, 40, 60 and 120 minutes after the administration of glucose or sodium chloride solution.
Analysis and Processing of the Data:
The area under the time-blood glucose curve of the OGTT (Oral Glucose Tolerance Test) (AUC) was calculated. A net variable AUC (ΔAUC) was obtained by subtracting the AUC of Background Control group from that of Vehicle Control group, Dosing groups 1 and 2. The inhibition ratio (%)=100×(ΔAUCVehicle Control group-ΔAUC)/ΔAUCVehicle Control group, wherein ΔAUC is the net variable AUC of each Dosing group, and ΔAUCVehicle Control group is the net variable AUC of Vehicle Control group. The data of Dosing groups were compared with that of Vehicle Control group by using t-test value analysis, and the difference was considered significant at p<0.05.

[4] = intravenous injection, 10 mg/kg (in terms of Compound A)

Chain of DPP-IV (P27487 whole entry, species assumed): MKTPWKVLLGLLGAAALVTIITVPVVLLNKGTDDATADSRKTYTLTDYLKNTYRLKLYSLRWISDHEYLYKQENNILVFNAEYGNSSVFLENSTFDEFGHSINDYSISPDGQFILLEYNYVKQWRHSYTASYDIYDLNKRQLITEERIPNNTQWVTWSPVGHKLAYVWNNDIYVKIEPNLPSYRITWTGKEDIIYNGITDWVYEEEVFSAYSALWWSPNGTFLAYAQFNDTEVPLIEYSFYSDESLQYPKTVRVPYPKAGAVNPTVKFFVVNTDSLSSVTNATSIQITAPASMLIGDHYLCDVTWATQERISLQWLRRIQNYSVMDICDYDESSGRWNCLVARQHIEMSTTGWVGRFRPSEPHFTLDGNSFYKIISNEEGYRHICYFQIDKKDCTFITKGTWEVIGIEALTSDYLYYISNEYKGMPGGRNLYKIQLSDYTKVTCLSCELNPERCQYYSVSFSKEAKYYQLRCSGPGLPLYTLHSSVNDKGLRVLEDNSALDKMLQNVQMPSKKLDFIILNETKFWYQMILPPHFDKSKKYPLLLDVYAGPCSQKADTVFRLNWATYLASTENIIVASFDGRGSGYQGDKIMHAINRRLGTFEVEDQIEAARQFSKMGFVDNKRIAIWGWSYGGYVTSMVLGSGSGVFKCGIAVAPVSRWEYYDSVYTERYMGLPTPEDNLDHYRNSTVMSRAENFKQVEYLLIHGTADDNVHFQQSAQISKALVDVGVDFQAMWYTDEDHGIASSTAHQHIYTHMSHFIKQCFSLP

In the case of `Cc1cc(N2CCC[C@@H](N)C2)c2c(n1)n(C)c(=O)n2Cc1ccccc1C#N` [Compound A, (R)-2-[[7-(3-aminopiperidin-1-yl)-3,5-dimethyl-2-oxo-2,3-dihydro-1H-imidazo[4,5-b]pyridin-1-yl]methyl]benzonitrile], the “inhibitory effect for DPP-IV (in words)” value (DPP-IV) is listed as “strong inhibitory effect”, the “selectivity for DPP-IV (in words)” value (DPP-IV) is listed as “very high selectivity” and the Water solubility [1] is listed as under 0.1 mg/mL. For the same molecule, the “Water solubility (in words)” value [1] was “hardly dissolved or insoluble in water”.

In the case of `Cc1cc(N2CCC[C@@H](N)C2)c2c(n1)n(C)c(=O)n2Cc1ccccc1C#N` [crystal form I of dihydrochloride salt of Compound A], the “Content of Compound A (%)” value ([2]; 60° C., Day 5) is reported as 98.80%, the “Content of Relevant Substance (%)” value ([2]; 60° C., Day 5) is reported as 0.156% and the Properties ([2]; 60° C., Day 5) is reported as “white crystalline”. The “Content of Compound A (%)” value ([2]; 60° C., Day 10) was 99.42%, the “Content of Relevant Substance (%)” value ([2]; 60° C., Day 10) was 0.142% and the Properties ([2]; 60° C., Day 10) was “white crystalline”. For the same molecule, the “Content of Compound A (%)” value ([2]; 4500Lx ± 500Lx, Day 5) was 98.09%, the “Content of Relevant Substance (%)” value ([2]; 4500Lx ± 500Lx, Day 5) was 0.194% and the Properties ([2]; 4500Lx ± 500Lx, Day 5) was “white crystalline”. The “Content of Compound A (%)” value ([2]; 4500Lx ± 500Lx, Day 10) was 99.17%, the “Content of Relevant Substance (%)” value ([2]; 4500Lx ± 500Lx, Day 10) was 0.159% and the Properties ([2]; 4500Lx ± 500Lx, Day 10) was “white crystalline”. For the same molecule, the “Content of Compound A (%)” value ([2]; Day 0) was 99.16%, the “Content of Relevant Substance (%)” value ([2]; Day 0) was 0.151% and the Properties ([2]; Day 0) was “white crystalline”. The “Content of Compound A (%)” value ([2]; RH 75% ± 5%, Day 5) was 99.30%, the “Content of Relevant Substance (%)” value ([2]; RH 75% ± 5%, Day 5) was 0.200% and the Properties ([2]; RH 75% ± 5%, Day 5) was “white crystalline”. The “Content of Compound A (%)” value ([2]; RH 75% ± 5%, Day 10) was 99.55%, the “Content of Relevant Substance (%)” value ([2]; RH 75% ± 5%, Day 10) was 0.171% and the Properties ([2]; RH 75% ± 5%, Day 10) was “white crystalline”. The “Relevant Substance and the content of Compound A (change, in words)” value ([2]; high temperature, high humidity and light irradiation) was “substantially unchanged”, the “in vivo bioavailability (in words)” value [3] was “high” and the “apparent volume of distribution (Vd)” value [3, 4] was 6.17 L/kg. For the same molecule, the “plasma clearance (CL)” value [3, 4] was 40 mL/min/kg, the “Content of Compound A (%)” value (Long-term stability test; Month 0) was 99.53% and the “Content of Relevant Substance (%)” value (Long-term stability test; Month 0) was 0.211%. The Properties (Long-term stability test; Month 0) was “white crystalline”, the “Content of Compound A (%)” value (Long-term stability test; Month 3) was 99.32% and the “Content of Relevant Substance (%)” value (Long-term stability test; Month 3) was 0.251%. For the same molecule, the Properties (Long-term stability test; Month 3) was “white crystalline”, the “Content of Compound A (%)” value (Long-term stability test; Month 6) was 99.19% and the “Content of Relevant Substance (%)” value (Long-term stability test; Month 6) was 0.246%. The Properties (Long-term stability test; Month 6) was “white crystalline”, the “Content of Compound A (%)” value (Long-term stability test; Month 9) was 98.99% and the “Content of Relevant Substance (%)” value (Long-term stability test; Month 9) was 0.248%. For the same molecule, the Properties (Long-term stability test; Month 9) was “white crystalline”, the “Content of Compound A (%)” value (Long-term stability test; Month 12) was 99.17% and the “Content of Relevant Substance (%)” value (Long-term stability test; Month 12) was 0.221%. The Properties (Long-term stability test; Month 12) was “white crystalline”, the “Content of Compound A (%)” value (Long-term stability test; Month 18) was 99.37% and the “Content of Relevant Substance (%)” value (Long-term stability test; Month 18) was 0.221%. The Properties (Long-term stability test; Month 18) was “white crystalline”, the “Relevant Substance and the content of Compound A (change, in words)” value (Long-term stability test; long-term stability investigating test) was “substantially unchanged” and the Water solubility [1] was over 1000 mg/mL. For the same molecule, the “Water solubility (in words)” value [1] was “dissolved very easily in water”, the “effect for reducing blood glucose (in words)” value (blood glucose; mice C57BL/6) was “significant effect for reducing blood glucose” and the “inhibition ratio for the blood glucose AUC” value (blood glucose; mice C57BL/6, 1 mg/kg intragastric) was 57%. The “inhibition ratio for the blood glucose AUC” value (blood glucose; mice C57BL/6, 3 mg/kg intragastric) was 65%.

For `Cc1cc(N2CCC[C@@H](N)C2)c2c(n1)n(C)c(=O)n2Cc1ccccc1C#N`, the bioavailability ([3]; both sexes, Sprague-Dawley, rat, plasma, oral, intragastric vs intravenous, 10 mg/kg (in terms of Compound A), read-out: bioavailability (F %)) was 96.6%.
